target: T1, human histamine H3 receptor (Homo sapiens, UniProt Q9Y5N1); test: H3 cell based functional assay (cAMP, β-lactamase reporter gene); details: not given
T1 construct: expressed in transfected cells
Experimental: Compounds were evaluated using a cell based functional assay measuring cAMP through β-lactamase reporter gene activity. A stable cell line was generated from HEK-293 cells expressing a CRE β-lactamase reporter gene and transfected with human histamine H3 receptor cDNA. Cells were seeded at a density of 500,000 cells/ml, and grown overnight in MEM (Invitrogen) supplemented with 1% dialysed FBS (Sigma), 2 mM glutamine (Sigma), 1 mM sodium pyruvate (Sigma), 0.1 mM non essential amino acids (Invitrogen) and 25 mM HEPES (Sigma) in poly D lysine coated 384 well plates (BD Biosciences). […] Cells were incubated for 15 minutes plus/minus compound and their ability to permit 10 μM forskolin-stimulated cAMP synthesis in the presence of 1 nM imetit was measured as described above.

T1 sequence (Q9Y5N1 whole entry): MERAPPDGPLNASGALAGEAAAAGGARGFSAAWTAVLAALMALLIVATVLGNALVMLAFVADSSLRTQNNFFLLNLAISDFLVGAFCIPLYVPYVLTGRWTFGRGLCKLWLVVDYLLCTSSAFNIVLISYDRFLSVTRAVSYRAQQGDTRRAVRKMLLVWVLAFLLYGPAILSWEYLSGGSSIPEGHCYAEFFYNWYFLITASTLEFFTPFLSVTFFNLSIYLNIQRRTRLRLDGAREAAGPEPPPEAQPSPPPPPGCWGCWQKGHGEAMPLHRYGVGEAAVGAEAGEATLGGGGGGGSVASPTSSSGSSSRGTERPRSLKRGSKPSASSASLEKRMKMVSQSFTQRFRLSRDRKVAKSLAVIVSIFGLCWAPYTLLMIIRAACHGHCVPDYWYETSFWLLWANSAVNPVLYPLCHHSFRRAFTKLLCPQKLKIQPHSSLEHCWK

Row | Compound | Ki
1 | CC(C)N1CCC(Oc2ccc(C3(CNc4ccnnc4)CCOCC3)cc2)CC1 [Example 267, N-[(4-{4-[(1-isopropylpiperidin-4-yl)oxy]phenyl}tetrahydro-2H-pyran-4-yl)methyl]pyridazin-4-amine] | 5.8 nM

same assay, conditions: functional Ki from IC50 by Cheng-Prussoff; HEK-293 CRE β-lactamase cells, 10 μM forskolin, 1 nM imetit; read-out: Ki (H3 cell based assay - nM)

Row | Compound | Ki
2 | CN(C)CC1(c2ccc(OCCCN3CCCC3)cc2)CCOCC1 [Example 29, Dimethyl-{4-[4-(3-pyrrolidin-1-ylpropoxy)phenyl]-tetrahydro-pyran-4-ylmethyl}amine] | 0.4 nM
3 | CC(C)N1CCC(Oc2ccc(C3(C(=O)N(C)C)CCOCC3)cc2)CC1 [Example 133, 4-{4-[(1-isopropylpiperidin-4-yl)oxy]phenyl}-N,N-dimethyltetrahydro-2H-pyran-4-carboxamide] | 12.4 nM
4 | Cc1csc(C2(c3ccc(OCCCN4CCCC4)cc3)CCOCC2)n1 [Example 136, 4-methyl-2-[4-(4-(3-pyrrolidin-1-ylpropoxy)phenyl)tetrahydro-2H-pyran-4-yl]-1,3-thiazole] | 3.9 nM
5 | CN(C)C(=O)C1(c2ccc(OC3CCN(C4CCC4)CC3)cc2)CCOCC1 [Example 155, 4-{4-[(1-cyclobutylpiperidin-4-yl)oxy]phenyl}-N,N-dimethyltetrahydro-2H-pyran-4-carboxamide] | 1 nM
6 | CNC(=O)C1(c2ccc(OC3CCN(C4CCC4)CC3)cc2)CCOCC1 [Example 156, 4-{4-[(1-cyclobutylpiperidin-4-yl)oxy]phenyl}-N-methyltetrahydro-2H-pyran-4-carboxamide] | 2 nM
7 | CCNC(=O)C1(c2ccc(OC3CCN(C4CCC4)CC3)cc2)CCOCC1 [Example 160, 4-{4-[(1-cyclobutylpiperidin-4-yl)oxy]phenyl}-N-ethyltetrahydro-2H-pyran-4-carboxamide] | 1.5 nM
8 | O=C(N1CCCC1)C1(c2ccc(OCCCN3CCCC3)cc2)CCOCC1 [Example 187, 1-(3-{4-[4-(pyrrolidin-1-ylcarbonyl)tetrahydro-2H-pyran-4-yl]phenoxy}propyl)pyrrolidine] | 7.3 nM
9 | O=C(N1CCCCC1)C1(c2ccc(OCCCN3CCCC3)cc2)CCOCC1 [Example 188, 1-({4-[4-(3-pyrrolidin-1-ylpropoxy)phenyl]-tetrahydro-2H-pyran-4-yl}carbonyl)piperidine] | 6.8 nM
10 | O=C(N1CCC1)C1(c2ccc(OCCCN3CCCC3)cc2)CCOCC1 [Example 189, 1-(3-{4-[4-(azetidin-1-ylcarbonyl)tetrahydro-2H-pyran-4-yl]phenoxy}propyl)pyrrolidine] | 14.3 nM
11 | CCN(C)C(=O)C1(c2ccc(OCCCN3CCCC3)cc2)CCOCC1 [Example 190, N-ethyl-N-methyl-4-[4-(3-pyrrolidin-1-ylpropoxy)phenyl]tetrahydro-2H-pyran-4-carboxamide] | 2.4 nM
12 | CN(C)C(=O)C1(c2ccc(OCCCN3CCCC3)cc2)CCOCC1 [Example 191, N,N-dimethyl-4-[4-(3-pyrrolidin-1-ylpropoxy)-phenyl]tetrahydro-2H-pyran-4-carboxamide] | 10.3 nM
13 | c1ccc2c(c1)ncn2CC1(c2ccc(OCCCN3CCCC3)cc2)CCOCC1 [Example 196] | 0.6 nM
14 | c1ccc(C2(c3ccc(OCCCN4CCCC4)cc3)CCOCC2)nc1 [Example 205, 2-{4-[4-(3-pyrrolidin-1-ylpropoxy)phenyl]tetrahydro-2H-pyran-4-yl}-pyridine] | 5.8 nM
15 | c1ncc(C2(c3ccc(OCCCN4CCCC4)cc3)CCOCC2)o1 [Example 206, 5-{4-[4-(3-pyrrolidin-1-ylpropoxy)phenyl]tetrahydro-2H-pyran-4-yl}-1,3-oxazole] | 12.9 nM
16 | CN(C)CC1(c2ccc(OCCCN3CCOCC3)cc2)CCOCC1 [Example 213, N,N-dimethyl-1-{4-[4-(3-morpholin-4-ylpropoxy)phenyl]tetrahydro-2H-pyran-4-yl}methanamine] | 2.6 nM
17 | CC(C)N1CC(COc2ccc(C3(CN4CCOCC4)CCOCC3)cc2)C1 [Example 220, 4-[(4-{4-[(1-isopropylazetidin-3-yl)methoxy]phenyl}tetrahydro-2H-pyran-4-yl)methyl]morpholine] | 2.2 nM
18 | c1cc2c(cn1)ncn2CC1(c2ccc(OCCCN3CCCC3)cc2)CCOCC1 [Example 247, 1-({4-[4-(3-pyrrolidin-1-ylpropoxy)phenyl]tetrahydro-2H-pyran-4-yl}methyl)-1H-imidazo[4,5-c]pyridine] | 3.9 nM
19 | c1cnc2c(c1)ncn2CC1(c2ccc(OCCCN3CCCC3)cc2)CCOCC1 [Example 248, 3-({4-[4-(3-pyrrolidin-1-ylpropoxy)phenyl]tetrahydro-2H-pyran-4-yl}methyl)-3H-imidazo[4,5-b]pyridine] | 0.3 nM
20 | c1cnc2ncn(CC3(c4ccc(OCCCN5CCCC5)cc4)CCOCC3)c2c1 [Example 249, 1-({4-[4-(3-pyrrolidin-1-ylpropoxy)phenyl]tetrahydro-2H-pyran-4-yl}methyl)-1H-imidazo[4,5-b]pyridine] | 9.7 nM
21 | c1cc(NCC2(c3ccc(OCCCN4CCCC4)cc3)CCOCC2)cnn1 [Example 250, N-({4-[4-(3-pyrrolidin-1-ylpropoxy)phenyl]tetrahydro-2H-pyran-4-yl}methyl)pyridazin-4-amine] | 4.6 nM
22 | CNCC1(c2ccc(OCCCN3CCOCC3)cc2)CCOCC1 [Example 254, N-methyl-1-{4-[4-(3-morpholin-4-ylpropoxy)phenyl]tetrahydro-2H-pyran-4-yl}methanamine] | 1.3 nM
23 | c1c[nH]c(C2(c3ccc(OCCCN4CCCC4)cc3)CCOCC2)n1 [Example 266, 2-{4-[4-(3-pyrrolidin-1-ylpropoxy)phenyl]tetrahydro-2H-pyran-4-yl}-1H-imidazole] | 9.7 nM
24 | c1cc(C2(CN3CCOCC3)CCOCC2)ccc1OCCCN1CCCOCC1 [Example 268, 4-(3-{4-[4-(morpholin-4-ylmethyl)tetrahydro-2H-pyran-4-yl]phenoxy}propyl)-1,4-oxazepane] | 6.5 nM
25 | c1cc(C2(Cn3cnnc3)CCOCC2)ccc1OCCCN1CCCC1 [Example 272, 4-({4-[4-(3-pyrrolidin-1-ylpropoxy)phenyl]tetrahydro-2H-pyran-4-yl}methyl)-4H-1,2,4-triazole] | 10.8 nM
26 | c1cc(C2(c3ccc(OCCCN4CCCC4)cc3)CCOCC2)ncn1 [Example 276, 4-{4-[4-(3-pyrrolidin-1-ylpropoxy)phenyl]tetrahydro-2H-pyran-4-yl}pyrimidine] | 6.2 nM

— patent US7456164B2, “3- or 4-monosubtituted phenol and thiophenol derivatives useful as H3 ligands” (Pfizer, Inc, priority 2004, dated 2008)
